We go through 15 compounds from US20240208992A1, “MACROCYCLES AS CFTR MODULATORS” (Idorsia Pharmaceuticals Ltd, priority 2021, published 2024).

The assay addresses human F508del-CFTR (Homo sapiens, UniProt P13569, DEL508-508). The experiment in a line: F508del-CFTR cell surface expression (corrector activity), DiscoveRx ß-galactosidase complementation chemiluminescence assay in recombinant U2OS cell line.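 For all read-outs here: U2OS cells co-expressing ProLink-tagged F508del-CFTR and a membrane-anchored enzyme acceptor, where more surface CFTR restores β-galactosidase activity measured by chemiluminescence.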 The following applies: U2OS cells, 16h compound incubation; for EC50: EC50, F508del-CFTR cell surface expression, geomean of several measurements; for Emax: U2OS, in relation to the Emax of the corrector lumacaftor (=100%), arithmetic mean.

The term EC50 denotes the concentration at which the effect is half-maximal. For orientation: Emax means the size of the effect at its maximum, as opposed to the concentration needed.

human F508del-CFTR, sequence (P13569 with tags, fused parts or gaps DEL508-508): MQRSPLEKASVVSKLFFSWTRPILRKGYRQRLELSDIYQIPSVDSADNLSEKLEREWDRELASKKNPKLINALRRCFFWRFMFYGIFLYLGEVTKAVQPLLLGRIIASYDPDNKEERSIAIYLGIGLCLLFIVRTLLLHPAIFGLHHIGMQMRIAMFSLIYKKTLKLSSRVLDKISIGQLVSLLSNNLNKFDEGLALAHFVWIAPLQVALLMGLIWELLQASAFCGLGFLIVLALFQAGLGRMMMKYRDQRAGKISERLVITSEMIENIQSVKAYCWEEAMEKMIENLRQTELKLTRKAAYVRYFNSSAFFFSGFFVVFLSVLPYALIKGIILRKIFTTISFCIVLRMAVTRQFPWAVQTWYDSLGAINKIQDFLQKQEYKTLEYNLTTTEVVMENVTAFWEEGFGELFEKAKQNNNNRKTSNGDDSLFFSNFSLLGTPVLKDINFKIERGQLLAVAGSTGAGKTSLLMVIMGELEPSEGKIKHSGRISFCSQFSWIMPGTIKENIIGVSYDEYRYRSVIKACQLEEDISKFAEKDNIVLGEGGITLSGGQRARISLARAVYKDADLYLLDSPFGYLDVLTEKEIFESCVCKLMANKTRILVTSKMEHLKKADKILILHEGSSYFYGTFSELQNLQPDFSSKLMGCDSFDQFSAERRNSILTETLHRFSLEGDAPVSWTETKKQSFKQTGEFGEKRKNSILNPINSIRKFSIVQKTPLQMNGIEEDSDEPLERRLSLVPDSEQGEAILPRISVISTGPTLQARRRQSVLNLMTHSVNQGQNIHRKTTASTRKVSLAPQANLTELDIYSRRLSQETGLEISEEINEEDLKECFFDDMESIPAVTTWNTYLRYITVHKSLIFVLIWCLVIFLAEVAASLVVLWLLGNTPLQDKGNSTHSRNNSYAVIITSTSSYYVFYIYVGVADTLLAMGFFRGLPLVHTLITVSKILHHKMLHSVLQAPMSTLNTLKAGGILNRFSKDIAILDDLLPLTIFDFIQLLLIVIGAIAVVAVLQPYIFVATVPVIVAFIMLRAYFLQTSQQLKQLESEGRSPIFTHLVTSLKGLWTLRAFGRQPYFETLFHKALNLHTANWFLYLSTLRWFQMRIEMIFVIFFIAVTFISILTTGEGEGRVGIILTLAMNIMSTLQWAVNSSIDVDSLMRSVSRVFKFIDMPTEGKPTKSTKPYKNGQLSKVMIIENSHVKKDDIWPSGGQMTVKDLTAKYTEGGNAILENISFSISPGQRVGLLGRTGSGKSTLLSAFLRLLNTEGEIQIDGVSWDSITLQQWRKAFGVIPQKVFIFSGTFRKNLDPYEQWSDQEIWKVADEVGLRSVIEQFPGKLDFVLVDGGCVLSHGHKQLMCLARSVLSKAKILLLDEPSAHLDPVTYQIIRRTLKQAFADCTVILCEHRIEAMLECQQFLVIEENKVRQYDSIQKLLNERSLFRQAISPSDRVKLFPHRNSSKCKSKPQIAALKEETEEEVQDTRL

Take `COc1cc(CCNC(=O)[C@@H]2CC(=O)N(C)[C@@H](CC(C)C)C(=O)N(C)[C@H](Cc3nc(C(F)(F)F)no3)C(=O)N[C@H](Cc3ccccc3)COc3ccc4cnc(C)cc4c3C(=O)N2)on1` [Example 898, (3S,7S,10R,13R)-13-benzyl-7-isobutyl-N-(2-(3-methoxyisoxazol-5-yl)ethyl)-6,9,20-trimethyl-1,5,8,11-tetraoxo-10-((3-(trifluoromethyl)-1,2,4-oxadiazol-5-yl)methyl)-1,2,3,4,5,6,7,8,9,10,11,12,13,14-tetradecahydro-[1]oxa[4,7,10,14]tetraazacycloheptadecino[16,17-f]isoquinoline-3-carboxamide]: the EC50 stood at 22 nM and the Emax worked out at 440%.
The corresponding values for `Cc1cc2c3c(ccc2cn1)OC[C@@H](Cc1ccccc1)NC(=O)C1(CC1)N(C)C(=O)[C@H](CC(C)C)N(C)C(=O)C[C@@H](C(=O)NCCc1noc(C2CC2)n1)NC3=O` [Example 900, (3′S,7′S,13′R)-13′-benzyl-N-(2-(5-cyclopropyl-1,2,4-oxadiazol-3-yl)ethyl)-7′-isobutyl-6′,9′,20′-trimethyl-1′,5′,8′,11′-tetraoxo-2′,3′,4′,5′,6′,7′,8′,9′,11′,12′,13′,14′-dodecahydro-1′H-spiro[cyclopropane-1,10′-[1]oxa[4,7,10,14]tetraazacycloheptadecino[16,17-f]isoquinoline]-3′-carboxamide] are 831 nM and 374%.
As to `COc1cc(CCNC(=O)[C@@H]2CC(=O)N(C)[C@@H](CC(C)C)C(=O)N(C)C3(CC3)C(=O)N[C@H](Cc3ccccc3)COc3ccc4cnc(C)cc4c3C(=O)N2)on1` [Example 901, (3′S,7′S,13′R)-13′-benzyl-7′-isobutyl-N-(2-(3-methoxyisoxazol-5-yl)ethyl)-6′,9′,20′-trimethyl-1′,5′,8′,11′-tetraoxo-2′,3′,4′,5′,6′,7′,8′,9′,11′,12′,13′,14′-dodecahydro-1′H-spiro[cyclopropane-1,10′-[1]oxa[4,7,10,14]tetraazacycloheptadecino[16,17-f]isoquinoline]-3′-carboxamide], the EC50 is 736 nM and the maximum response (Emax) was 390%.
Taken in the same sequence, the figures for `COc1nc(C)cc2c1C(=O)N[C@H](C(=O)NCCn1nnc(C3CC3)n1)CC(=O)N(C)[C@@H](CC(C)C)C(=O)N(C)[C@H](Cc1nc(C(F)(F)F)no1)C(=O)N[C@H](Cc1ccccc1)CO2` [Example 902, (3R,6R,9S,13S)-3-benzyl-N-(2-(5-cyclopropyl-2H-tetrazol-2-yl)ethyl)-9-isobutyl-16-methoxy-7,10,18-trimethyl-5,8,11,15-tetraoxo-6-((3-(trifluoromethyl)-1,2,4-oxadiazol-5-yl)methyl)-2,3,4,5,6,7,8,9,10,11,12,13,14,15-tetradecahydropyrido[3,4-p][1]oxa[4,7,10,14]tetraazacycloheptadecine-13-carboxamide] were 55 nM and 453%.
The corresponding values for `COc1nc(C)cc2c1C(=O)N[C@H](C(=O)NCCn1nc3ccccc3n1)CC(=O)N(C)[C@@H](CC(C)C)C(=O)N(C)[C@H](Cc1nc(C(F)(F)F)no1)C(=O)N[C@H](Cc1ccccc1)CO2` [Example 903, (3R,6R,9S,13S)-N-(2-(2H-benzo[d][1,2,3]triazol-2-yl)ethyl)-3-benzyl-9-isobutyl-16-methoxy-7,10,18-trimethyl-5,8,11,15-tetraoxo-6-((3-(trifluoromethyl)-1,2,4-oxadiazol-5-yl)methyl)-2,3,4,5,6,7,8,9,10,11,12,13,14,15-tetradecahydropyrido[3,4-p][1]oxa[4,7,10,14]tetraazacycloheptadecine-13-carboxamide] are 51 nM and 414%.
Taken in the same sequence, the figures for `Cc1cc2c3c(ccc2cn1)OC[C@@H](Cc1ccccc1)NC(=O)C1(CC1)N(C)C(=O)[C@H](CC(C)C)N(C)C(=O)C[C@@H](C(=O)NCCn1nc2ccccc2n1)NC3=O` [Example 904, (3′S,7′S,13′R)-N-(2-(2H-benzo[d][1,2,3]triazol-2-yl)ethyl)-13′-benzyl-7′-isobutyl-6′,9′,20′-trimethyl-1′,5′,8′,11′-tetraoxo-2′,3′,4′,5′,6′,7′,8′,9′,11′,12′,13′,14′-dodecahydro-1′H-spiro[cyclopropane-1,10′-[1]oxa[4,7,10,14]tetraazacycloheptadecino[16,17-f]isoquinoline]-3′-carboxamide] were 722 nM and 365%.
In the case of `Cc1cc2c3c(ccc2cn1)OC[C@@H](Cc1ccccc1)NC(=O)[C@@H](Cc1nc(-c2ccc(F)cn2)no1)N(C)C(=O)[C@H](CC(C)C)N(C)C(=O)C[C@@H](C(=O)NCCc1noc(C2CC2)n1)NC3=O` [Example 905], the 50% effective concentration (EC50) was found to be 311 nM and the maximum response (Emax) was found to be 415%.
Turning to `COc1cc(CCNC(=O)[C@@H]2CC(=O)N(C)[C@@H](CC(C)C)C(=O)N(C)[C@H](Cc3nc(-c4ccc(F)cn4)no3)C(=O)N[C@H](Cc3ccccc3)COc3ccc4cnc(C)cc4c3C(=O)N2)on1` [Example 906, (3S,7S,10R,13R)-13-benzyl-10-((3-(5-fluoropyridin-2-yl)-1,2,4-oxadiazol-5-yl)methyl)-7-isobutyl-N-(2-(3-methoxyisoxazol-5-yl)ethyl)-6,9,20-trimethyl-1,5,8,11-tetraoxo-1,2,3,4,5,6,7,8,9,10,11,12,13,14-tetradecahydro-[1]oxa[4,7,10,14]tetraazacycloheptadecino[16,17-f]isoquinoline-3-carboxamide], the EC50 turned out to be 294 nM and the Emax is 433%.
Take `Cc1cc2c3c(ccc2cn1)OC[C@@H](Cc1ccccc1)NC(=O)[C@@H](Cc1nc(-c2ccc(F)cn2)no1)N(C)C(=O)[C@H](CC(C)C)N(C)C(=O)C[C@@H](C(=O)NCCn1nnc(C2CC2)n1)NC3=O` [Example 907]: the EC50 turned out to be 425 nM and the Emax turned out to be 454%.
The corresponding values for `CC(C)C[C@H]1C(=O)N(C)[C@H](Cc2nc(C(F)(F)F)no2)C(=O)N[C@H](Cc2ccccc2)COc2ccc3ncc(F)cc3c2C(=O)N[C@H](C(=O)NCCc2nc3ncccn3n2)CC(=O)N1C` [Example 908, (3S,7S,10R,13R)-N-(2-([1,2,4]triazolo[1,5-a]pyrimidin-2-yl)ethyl)-13-benzyl-20-fluoro-7-isobutyl-6,9-dimethyl-1,5,8,11-tetraoxo-10-((3-(trifluoromethyl)-1,2,4-oxadiazol-5-yl)methyl)-1,2,3,4,5,6,7,8,9,10,11,12,13,14-tetradecahydro-[1]oxa[4,7,10,14]tetraazacycloheptadecino[16,17-f]quinoline-3-carboxamide] are 94 nM and 401%.
The corresponding values for `COc1cc(CCNC(=O)[C@@H]2CC(=O)N(C)[C@@H](CC(C)C)C(=O)N(C)[C@H](Cc3nc(C(F)(F)F)no3)C(=O)N[C@H](Cc3ccccc3)COc3cc(C)c4ncccc4c3C(=O)N2)on1` [Example 909, (3S,7S,10R,13R)-13-benzyl-7-isobutyl-N-(2-(3-methoxyisoxazol-5-yl)ethyl)-6,9,17-trimethyl-1,5,8,11-tetraoxo-10-((3-(trifluoromethyl)-1,2,4-oxadiazol-5-yl)methyl)-1,2,3,4,5,6,7,8,9,10,11,12,13,14-tetradecahydro-[1]oxa[4,7,10,14]tetraazacycloheptadecino[16,17-f]quinoline-3-carboxamide] are 17 nM and 430%.
Taken in the same sequence, the figures for `CCOCC[C@@H]1C(=O)N[C@H](Cc2ccccc2)COc2cc(C)nc(OC)c2C(=O)N[C@H](C(=O)NCCc2cc(C3CC3)no2)CC(=O)N(C)[C@@H](CC(C)C)C(=O)N1C` [Example 910, (3R,6R,9S,13S)-3-benzyl-N-(2-(3-cyclopropylisoxazol-5-yl)ethyl)-6-(2-ethoxyethyl)-9-isobutyl-16-methoxy-7,10,18-trimethyl-5,8,11,15-tetraoxo-2,3,4,5,6,7,8,9,10,11,12,13,14,15-tetradecahydropyrido[3,4-p][1]oxa[4,7,10,14]tetraazacycloheptadecine-13-carboxamide] were 477 nM and 423%.
In the case of `COc1noc(CCNC(=O)[C@@H]2CC(=O)N(C)[C@@H](CC(C)C)C(=O)N(C)C3(CC3)C(=O)N[C@H](Cc3ccccc3)COc3ccc4ncc(F)cc4c3C(=O)N2)n1` [Example 911, (3′S,7′S,13′R)-13′-benzyl-20′-fluoro-7′-isobutyl-N-(2-(3-methoxy-1,2,4-oxadiazol-5-yl)ethyl)-6′,9′-dimethyl-1′,5′,8′,11′-tetraoxo-2′,3′,4′,5′,6′,7′,8′,9′,11′,12′,13′,14′-dodecahydro-1′H-spiro[cyclopropane-1,10′-[1]oxa[4,7,10,14]tetraazacycloheptadecino[16,17-f]quinoline]-3′-carboxamide], the EC50 was determined as 531 nM and the Emax is 341%.
Taken in the same sequence, the figures for `COc1cc(CCNC(=O)[C@@H]2CC(=O)N(C)[C@@H](CC(C)C)C(=O)N3CCCC[C@@H]3C(=O)N[C@H](Cc3ccccc3)COc3ccc4ncccc4c3C(=O)N2)on1` [Example 912, (9S,13S,19aR,22R)-22-benzyl-13-isobutyl-N-(2-(3-methoxyisoxazol-5-yl)ethyl)-12-methyl-7,11,14,20-tetraoxo-7,8,9,10,11,12,13,14,17,18,19,19a,20,21,22,23-hexadecahydro-16H-pyrido[2′,1′:6,7][1]oxa[4,7,10,14]tetraazacycloheptadecino[16,17-f]quinoline-9-carboxamide] were 272 nM and 332%.
Taken in the same sequence, the figures for `CCOCC[C@@H]1C(=O)N[C@H](Cc2ccccc2)COc2ccc3cnc(C)cc3c2C(=O)N[C@H](C(=O)NCCc2cc(OC)no2)CC(=O)N(C)[C@@H](CC(C)C)C(=O)N1C` [Example 913, (3S,7S,10R,13R)-13-benzyl-10-(2-ethoxyethyl)-7-isobutyl-N-(2-(3-methoxyisoxazol-5-yl)ethyl)-6,9,20-trimethyl-1,5,8,11-tetraoxo-1,2,3,4,5,6,7,8,9,10,11,12,13,14-tetradecahydro-[1]oxa[4,7,10,14]tetraazacycloheptadecino[16,17-f]isoquinoline-3-carboxamide] were 294 nM and 390%.
